Measurements published in patent US20020155164A1, “System and method for the prevention of infections in human patients using nitric oxide” (priority 2001, published 2002).

Tested on: bacteria
Assay: Tests performed in vitro on bacteria
Type: cell-based
Settings: many types of bacteria
Excerpt: The inventors of the instant invention have investigated NO for its use as a sterilizing agent in the prevention and treatment of infections. […] PCT International Application No. PCT/CA99/01123, a published Jun. 2, 2000, discloses a method and an apparatus for the treatment of human respiratory infections by NO inhalation.

Q: For `[N]=O` [NO, nitric oxide], which “effect on growth / killing of bacteria” value is on record?
A: interfere with the growth of and/or kill many types of bacteria
